These results are taken from ChEMBL document CHEMBL4376804, “Review of Transient Receptor Potential Canonical (TRPC5) Channel Modulators and Diseases” (J Med Chem, 2019).

The pIC50 is the IC50 on a negative log10 scale, so that one unit is a factor of ten.

pIC50: −log10 of the molar value.

The target of one assay is T1, Short transient receptor potential channel 5 (Homo sapiens, UniProt Q9UL62).
T1 sequence (Q9UL62 whole entry): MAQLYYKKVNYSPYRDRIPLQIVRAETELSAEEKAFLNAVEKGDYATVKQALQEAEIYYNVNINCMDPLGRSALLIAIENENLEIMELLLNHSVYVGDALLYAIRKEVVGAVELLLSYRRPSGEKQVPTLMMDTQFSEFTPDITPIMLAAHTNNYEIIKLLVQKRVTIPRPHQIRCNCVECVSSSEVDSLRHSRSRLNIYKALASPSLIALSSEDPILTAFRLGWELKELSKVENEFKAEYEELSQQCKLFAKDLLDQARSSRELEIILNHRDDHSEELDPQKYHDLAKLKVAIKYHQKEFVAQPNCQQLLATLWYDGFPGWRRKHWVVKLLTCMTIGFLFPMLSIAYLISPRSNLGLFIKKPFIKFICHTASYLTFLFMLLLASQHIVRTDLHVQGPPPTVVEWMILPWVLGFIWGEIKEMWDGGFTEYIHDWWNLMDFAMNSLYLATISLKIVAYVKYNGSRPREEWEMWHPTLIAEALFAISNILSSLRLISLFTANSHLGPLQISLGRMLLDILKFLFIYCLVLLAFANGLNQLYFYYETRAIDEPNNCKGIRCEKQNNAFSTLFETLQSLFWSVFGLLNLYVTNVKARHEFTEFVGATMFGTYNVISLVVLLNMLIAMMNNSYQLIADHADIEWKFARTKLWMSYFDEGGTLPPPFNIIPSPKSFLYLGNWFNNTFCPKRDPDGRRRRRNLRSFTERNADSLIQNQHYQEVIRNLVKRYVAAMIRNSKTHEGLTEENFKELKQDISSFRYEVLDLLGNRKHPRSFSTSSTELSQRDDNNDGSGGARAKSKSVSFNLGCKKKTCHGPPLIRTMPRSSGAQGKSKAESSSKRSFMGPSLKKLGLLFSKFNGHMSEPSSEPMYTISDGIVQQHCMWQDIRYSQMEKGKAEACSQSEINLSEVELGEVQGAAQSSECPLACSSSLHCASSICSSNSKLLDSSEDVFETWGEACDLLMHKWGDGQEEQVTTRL
Kind of assay: Inhibition of TRPC5 (unknown origin) expressed in HEK293/TREx cells assessed as reduction in intracellular calcium level measured for 3 mins by fluo4 dye-based fluorescence assay. It counts as cell-based.
For `Cc1c(-c2ccccc2OC(F)(F)F)sc2c1c(=O)n(CCCO)c(=O)n2C`, the pIC50 was 5.77 to 7.68.

For `Cn1c(=O)n(CCCO)c(=O)c2c(Cc3ccc(F)cc3)c(Oc3cccc(OC(F)(F)F)c3)ccc21`, the pIC50 is 6.40 to 9.00.

For the compound `Cc1c(-c2ccc(F)c(C(F)(F)F)c2)sc2c1c(=O)n(CCCO)c(=O)n2C`, the pIC50 was 5.77 to 7.68.

Take `COc1ccc2c(c1Cc1ccc(F)cc1)c(=O)n(CCCO)c(=O)n2C`: the negative-log IC50 (pIC50) is 6.40 to 9.00.

Take `Cc1c(-c2ccc3ccccc3c2)sc2c1c(=O)n(CCCO)c(=O)n2C`: the pIC50 is 5.77 to 7.68.

Take `Cc1c(-c2cccc(F)c2)sc2c1c(=O)n(CCCO)c(=O)n2C`: the pIC50 was 5.77 to 7.68.

For `Cn1c(=O)n(CCCO)c(=O)c2c(Cc3ccc(Cl)cc3)c(Oc3cccc(OC(F)(F)F)c3)sc21`, the negative-log IC50 (pIC50) is 5.77 to 7.68.

Consider `Cc1c(-c2ccc(Cl)c(Cl)c2)sc2c1c(=O)n(CCCO)c(=O)n2C`, for which the pIC50 was 5.77 to 7.68.

For the compound `Cn1c(=O)n(CCCO)c(=O)c2c(Cc3ccc(Cl)cc3)c(-c3cccc(Cl)c3)sc21`, the negative-log IC50 (pIC50) is 5.77 to 7.68.

For the compound `Cn1c(=O)n(CCCO)c(=O)c2c(Cc3ccc(Cl)cc3)c(Oc3cccc(Cl)c3)ncc21`, the pIC50 is 5.01 to 6.71.

For `Cn1c(=O)n(CCCO)c(=O)c2c1cc(-c1cccc(OC(F)(F)F)c1)n2Cc1ccc(Cl)cc1`, the negative-log IC50 (pIC50) was 5.12 to 6.39.

On to `Cn1c(=O)n(CCCO)c(=O)c2c(Cc3ccc(Cl)cc3)c(-c3cccc(Cl)c3)oc21`, for which the pIC50 is 5.77 to 7.68.

`Cc1c(-c2cccc(Cl)c2Cl)sc2c1c(=O)n(CCCO)c(=O)n2C`: the pIC50 was 5.77 to 7.68.

Consider `CC(C)c1ccccc1-c1cc2c(=O)n(CCCO)c(=O)n(C)c2cn1`, for which the pIC50 is 5.01 to 6.71.

Turning to `CCCCOc1ccc2c(c1Cc1ccc(F)cc1)c(=O)n(CCCO)c(=O)n2C`, the pIC50 is 6.40 to 9.00.

As to `Cc1c(-c2cncc(Cl)c2)sc2c1c(=O)n(CCCO)c(=O)n2C`, the negative logarithm of the IC50 (pIC50) was 5.77 to 7.68.

Consider `Cn1c(=O)n(CCCO)c(=O)c2c(C(O)c3ccc(Cl)cc3)c(Oc3cccc(OC(F)(F)F)c3)sc21` (stereo not drawn), for which the pIC50 is 5.77 to 7.68.

Regarding `Cc1c(-c2ccc(F)c(F)c2)sc2c1c(=O)n(CCCO)c(=O)n2C`, the pIC50 was 5.77 to 7.68.

For `Cn1c(=O)n(CCCO)c(=O)c2c(Cc3ccc(Cl)cc3)c(Oc3cccc(Cl)c3)sc21`, the pIC50 was 5.77 to 7.68.

On to `Cc1c(-c2ccc(Cl)cc2)sc2c1c(=O)n(CCCO)c(=O)n2C`, for which the pIC50 is 5.77 to 7.68.

`Cc1c(-c2ccccc2Cl)sc2c1c(=O)n(CCCO)c(=O)n2C`: the negative logarithm of the IC50 (pIC50) was 5.77 to 7.68.

For `Cc1c(-c2cccc(OC(F)(F)F)c2)[nH]c2c(=O)n(CCCO)c(=O)n(C)c12`, the pIC50 is 5.12 to 6.39.

Regarding `Cn1c(=O)n(CCCOC(=O)O)c(=O)c2c(Cc3ccc(Cl)cc3)c(-c3ccc(Cl)cc3)ncc21`, the negative logarithm of the IC50 (pIC50) is 5.01 to 6.71.

`Cn1c(=O)n(CCCO)c(=O)c2c(Cc3ccc(Cl)cc3)c(-c3cccc(OC(F)(F)F)c3)sc21`: the pIC50 is 5.77 to 7.68.

On to `Cn1c(=O)n(CCCO)c(=O)c2c1cc(-c1cccc(Cl)c1)n2Cc1ccc(Cl)cc1`, for which the negative logarithm of the IC50 (pIC50) is 5.12 to 6.39.

In the case of `Cn1c(=O)n(CCCCO)c(=O)c2c(Cc3ccccc3)c(Oc3cccc(OC(F)(F)F)c3)ccc21`, the pIC50 is 6.40 to 9.00.

Turning to `Cc1c(-c2cccc(OC(F)(F)F)c2)n(Cc2ccc(Cl)cc2)c2c(=O)n(CCCO)c(=O)n(C)c12`, the pIC50 is 5.12 to 6.39.

On to `Cn1c(=O)n(CCCO)c(=O)c2c(Cc3ccc(Cl)cc3)c(-c3ccc(Cl)cc3)sc21`, for which the pIC50 is 5.77 to 7.68.

Turning to `CC(C)CCc1c(-c2ccccc2C(C)C)ncc2c1c(=O)n(CCCO)c(=O)n2C`, the pIC50 is 5.01 to 6.71.

As to `Cn1c(=O)n(CCCO)c(=O)c2c1c(-c1cccc(Cl)c1)cn2Cc1ccc(Cl)cc1`, the pIC50 was 5.12 to 6.39.

As to `CC(C)CCc1c(-c2cccc(OC(F)(F)F)c2)sc2c1c(=O)n(CCCO)c(=O)n2C`, the pIC50 was 5.77 to 7.68.

Take `Cn1c(-c2cccc(OC(F)(F)F)c2)cc2c1c(=O)n(CCCO)c(=O)n2C`: the pIC50 was 5.12 to 6.39.

For `CC(C)CC(O)c1c(-c2cccc(OC(F)(F)F)c2)sc2c1c(=O)n(CCCO)c(=O)n2C` (stereo not drawn), the pIC50 was 5.77 to 7.68.

As to `Cn1c(=O)n(CCCO)c(=O)c2c(Cc3ccccc3)c(Oc3cccc(OC(F)(F)F)c3)ccc21`, the negative-log IC50 (pIC50) was 6.40 to 9.00.

Turning to `Cc1cn(Cc2ccc(Cl)cc2)c2c(=O)n(CCCO)c(=O)n(C)c12`, the negative-log IC50 (pIC50) is 5.12 to 6.39.

With `Cc1c(-c2cccc(OC(F)(F)F)c2)n(C)c2c(=O)n(CCCO)c(=O)n(C)c12`, the negative logarithm of the IC50 (pIC50) is 5.12 to 6.39.

Consider `Cn1c(=O)n(CCCO)c(=O)c2c(Cc3ccccc3)c(-c3cccc(OC(F)(F)F)c3)ncc21`, for which the pIC50 is 5.01 to 6.71.

On to `CC(C)CCc1c(-c2cccc(Cl)c2)ncc2c1c(=O)n(CCCO)c(=O)n2C`, for which the pIC50 is 5.01 to 6.71.

With `Cc1c(-c2cccc(Cl)c2)sc2c1c(=O)n(CCCO)c(=O)n2C`, the pIC50 was 5.77 to 7.68.

As for `Cn1c(=O)n(CCCO)c(=O)c2c(Cc3ccccc3)c(Oc3cccc(Cl)c3)ccc21`, the pIC50 is 6.40 to 9.00.

Take `Cn1c(=O)n(CCCO)c(=O)c2c(C(O)c3ccc(Cl)cc3)c(-c3cccc(Cl)c3)sc21` (stereo not drawn): the negative-log IC50 (pIC50) was 5.77 to 7.68.

`CC(C)c1ccccc1-c1ncc2c(c1Cc1ccc(Cl)cc1)c(=O)n(CCCO)c(=O)n2C`: the pIC50 was 5.01 to 6.71.

On to `O=c1c2c(Cc3ccc(Cl)cc3)c(-c3cccc(Cl)c3)oc2n(CCCO)c(=O)n1CCCO`, for which the negative logarithm of the IC50 (pIC50) was 5.77 to 7.68.

Turning to `Cc1c(-c2cccc(OC(F)(F)F)c2)sc2c1c(=O)n(CCCO)c(=O)n2C`, the pIC50 was 5.77 to 7.68.

For `CC(C)Oc1ccc2c(c1Cc1ccc(F)cc1)c(=O)n(CCCO)c(=O)n2C`, the pIC50 is 6.40 to 9.00.

As to `Cn1c(=O)n(CCCO)c(=O)c2c(Cc3ccccc3)c(-c3cccc(OC(F)(F)F)c3)ccc21`, the pIC50 is 6.40 to 9.00.

In the case of `CCCOc1ccc2c(c1Cc1ccc(F)cc1)c(=O)n(CCCO)c(=O)n2C`, the pIC50 was 6.40 to 9.00.

For the compound `CC(C)CCc1c(-c2ccc(Cl)cc2)ncc2c1c(=O)n(CCCO)c(=O)n2C`, the pIC50 is 5.01 to 6.71.

The target of another assay is T1, Short transient receptor potential channel 5. Kind of assay: Inhibition of human TRPC5 expressed in HEK293 cells assessed as reduction in gadolinium-induced calcium entry after 30 mins by fluo-4 dye based fluorescence assay. It counts as cell-based.
Take `O=c1cc(-c2ccc(O)c(O)c2)oc2cc(O)cc(O)c12` [LUTEOLIN]: the pIC50 was less than 5.00.

Regarding `O=c1c(O)c(-c2cc(O)c(O)c(O)c2)oc2cc(O)cc(O)c12` [MYRICETIN], the pIC50 is less than 5.00.

On to `O=c1cc(-c2ccc(O)cc2)oc2cc(O)cc(O)c12` [APIGENIN], for which the pIC50 was less than 5.00.

The next assay deals with T2, Short transient receptor potential channel 3 (Homo sapiens, UniProt Q13507).
T2 sequence (Q13507 whole entry): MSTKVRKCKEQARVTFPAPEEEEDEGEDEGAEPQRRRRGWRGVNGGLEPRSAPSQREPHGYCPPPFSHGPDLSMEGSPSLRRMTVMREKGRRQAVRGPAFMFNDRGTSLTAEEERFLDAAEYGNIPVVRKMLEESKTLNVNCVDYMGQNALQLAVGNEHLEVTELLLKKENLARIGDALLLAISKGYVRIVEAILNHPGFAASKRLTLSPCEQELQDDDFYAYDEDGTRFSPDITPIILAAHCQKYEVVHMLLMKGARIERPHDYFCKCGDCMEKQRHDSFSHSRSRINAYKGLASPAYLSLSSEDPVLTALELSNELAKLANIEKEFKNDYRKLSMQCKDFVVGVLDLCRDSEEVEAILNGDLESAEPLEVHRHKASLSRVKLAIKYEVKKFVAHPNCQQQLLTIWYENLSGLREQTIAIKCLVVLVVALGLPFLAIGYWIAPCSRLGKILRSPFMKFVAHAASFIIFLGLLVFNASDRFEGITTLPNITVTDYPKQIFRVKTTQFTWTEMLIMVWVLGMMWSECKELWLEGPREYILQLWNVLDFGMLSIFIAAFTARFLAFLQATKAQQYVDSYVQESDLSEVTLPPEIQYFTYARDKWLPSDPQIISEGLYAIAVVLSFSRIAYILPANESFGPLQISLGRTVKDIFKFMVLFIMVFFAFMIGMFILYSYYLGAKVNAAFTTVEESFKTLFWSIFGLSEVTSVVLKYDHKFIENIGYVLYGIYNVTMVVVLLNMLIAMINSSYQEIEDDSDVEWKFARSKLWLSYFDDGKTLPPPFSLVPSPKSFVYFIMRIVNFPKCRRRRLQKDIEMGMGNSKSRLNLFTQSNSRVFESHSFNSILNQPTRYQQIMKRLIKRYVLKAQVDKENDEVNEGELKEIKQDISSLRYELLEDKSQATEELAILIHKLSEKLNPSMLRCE
In words: Inhibition of YFP-tagged TRPC3 (unknown origin) expressed in HEK293 cells assessed as reduction carbhocol-induced receptor operated Calcium influx after 5 mins by fura-2-AM dye based assay. The assay is classed as cell-based.
With `Cc1ccc(S(=O)(=O)Nc2ccc(-n3nc(C(F)(F)F)cc3C(F)(F)F)cc2)cc1`, the pIC50 is 6.14.

Another assay deals with ORAI1/STIM1 (Rattus norvegicus, UniProt P84903+Q5M848). In words: Inhibition of ORAI/STIM1 in thapsigargin treated rat RBL2H3 cells assessed as reduction in store-operated calcium entry after 5 mins by fura-2-AM dye based assay. The assay is classed as cell-based.
Chain of ORAI1/STIM1 (P84903 whole entry): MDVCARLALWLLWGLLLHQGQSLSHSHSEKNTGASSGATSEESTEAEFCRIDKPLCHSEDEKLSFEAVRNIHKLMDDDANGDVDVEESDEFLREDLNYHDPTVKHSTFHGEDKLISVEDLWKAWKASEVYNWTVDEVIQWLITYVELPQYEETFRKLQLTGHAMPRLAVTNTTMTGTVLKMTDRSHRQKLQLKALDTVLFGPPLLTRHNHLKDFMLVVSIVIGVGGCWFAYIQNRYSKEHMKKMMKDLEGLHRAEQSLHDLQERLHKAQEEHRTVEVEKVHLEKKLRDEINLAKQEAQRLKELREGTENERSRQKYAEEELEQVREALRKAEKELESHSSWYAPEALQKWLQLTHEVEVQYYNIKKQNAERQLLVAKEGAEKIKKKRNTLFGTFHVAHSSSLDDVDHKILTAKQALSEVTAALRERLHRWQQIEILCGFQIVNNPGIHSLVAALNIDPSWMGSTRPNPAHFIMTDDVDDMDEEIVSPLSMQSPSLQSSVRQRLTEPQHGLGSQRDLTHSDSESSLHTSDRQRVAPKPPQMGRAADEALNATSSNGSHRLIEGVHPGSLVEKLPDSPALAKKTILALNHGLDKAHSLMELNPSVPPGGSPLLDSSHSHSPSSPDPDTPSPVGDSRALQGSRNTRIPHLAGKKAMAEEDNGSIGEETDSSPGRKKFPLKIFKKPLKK
Chain of ORAI1/STIM1 (Q5M848 whole entry): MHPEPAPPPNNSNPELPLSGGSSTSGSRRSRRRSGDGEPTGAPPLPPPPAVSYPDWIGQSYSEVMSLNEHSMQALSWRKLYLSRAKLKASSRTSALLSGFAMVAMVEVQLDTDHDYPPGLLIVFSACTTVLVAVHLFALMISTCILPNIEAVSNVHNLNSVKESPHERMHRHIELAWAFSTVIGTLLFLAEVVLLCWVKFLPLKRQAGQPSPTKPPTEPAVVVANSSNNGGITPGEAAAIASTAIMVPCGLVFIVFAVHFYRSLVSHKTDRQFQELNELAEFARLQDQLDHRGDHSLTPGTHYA
Regarding `Cc1ccc(S(=O)(=O)Nc2ccc(-n3nc(C(F)(F)F)cc3C(F)(F)F)cc2)cc1`, the pIC50 was 4.88.
